Source: patent US20250163038A1, “CBL-B MODULATORS AND USES THEREOF” (Nimbus Clio, Inc., priority 2021, published 2025)
Read-outs that look alike come from different tables or passages of the source.

Columns and labels:
[1] = biological target: Recombinant human Cbl-b (aa 36-427) (Homo sapiens, UniProt Q13191); assay: Cbl-b Biochemical Assay (TR-FRET); settings: read-out: TR-FRET hCbl-b IC50
[2] = tested on: Jurkat (clone E6-1) cells with NFAT luciferase reporter; assay: Jurkat reporter assay (NFAT Luciferase); format: cell-based; settings: Jurkat NFAT luciferase reporter cells, anti-CD3 stimulation, 6 hr, read-out: Jurkat NFAT EC50
[3] = biological target: T1, Recombinant human c-Cbl (aa 47-435) (Homo sapiens, UniProt P22681); assay: c-Cbl Biochemical Assay (TR-FRET); settings: hc-Cbl Biochemical Assay (TR-FRET); read-out: TR-FRET hcCbl IC50
T1 sequence (P22681 47-435): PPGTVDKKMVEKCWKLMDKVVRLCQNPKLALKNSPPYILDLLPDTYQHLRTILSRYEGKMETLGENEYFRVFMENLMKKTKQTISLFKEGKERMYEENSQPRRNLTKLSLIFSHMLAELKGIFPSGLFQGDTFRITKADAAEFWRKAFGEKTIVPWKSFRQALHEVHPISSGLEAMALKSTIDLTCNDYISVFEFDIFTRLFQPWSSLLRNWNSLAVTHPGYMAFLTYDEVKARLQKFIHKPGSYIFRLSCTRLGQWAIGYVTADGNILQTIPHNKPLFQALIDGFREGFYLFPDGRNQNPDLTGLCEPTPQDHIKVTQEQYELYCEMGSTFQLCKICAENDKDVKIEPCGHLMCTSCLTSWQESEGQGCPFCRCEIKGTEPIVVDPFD

Recombinant human Cbl-b (aa 36-427), sequence (Q13191 36-427): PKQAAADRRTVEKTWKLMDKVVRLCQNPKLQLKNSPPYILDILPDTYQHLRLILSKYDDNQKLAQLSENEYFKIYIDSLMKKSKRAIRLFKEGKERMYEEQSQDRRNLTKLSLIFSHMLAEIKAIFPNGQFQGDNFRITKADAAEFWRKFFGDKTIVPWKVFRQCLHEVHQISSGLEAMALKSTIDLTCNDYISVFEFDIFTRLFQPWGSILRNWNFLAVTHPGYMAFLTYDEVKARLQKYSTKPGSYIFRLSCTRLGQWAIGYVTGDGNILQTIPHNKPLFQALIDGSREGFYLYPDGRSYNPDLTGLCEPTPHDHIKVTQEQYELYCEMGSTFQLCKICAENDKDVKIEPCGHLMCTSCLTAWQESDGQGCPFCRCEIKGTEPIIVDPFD

Row | SMILES | IC50 [1] [nM] | EC50 ([2]; Homo sapiens) [nM] | IC50 [3] [nM] | EC50 [2] [nM]
1 | Cn1cnnc1-c1cc(F)ccc1-c1cccc(-c2nc3cc(CN[C@H]4CC[C@@H]4O)cc(C(F)(F)F)c3o2)c1 (racemic) [ADF-2, (1R,2R)-2-[({2-[4′-Fluoro-2′-(4-methyl-1,2,4-triazol-3-yl)-[1,1′-biphenyl]-3-yl]-7-(trifluoromethyl)-1,3-benzoxazol-5-yl}methyl)amino]cyclobutan-1-ol] | < 200 | < 200 | < 200 | 
2 | C[C@H]1CCC[C@@H](NCc2cc(C(F)(F)F)c3oc(-c4cccc(-c5ccc(F)cc5-c5nncn5C)c4)nc3c2)C1 (racemic) [FV-2, rac-(1R,3S)—N-((2-(4′-fluoro-2′-(4-methyl-4H-1,2,4-triazol-3-yl)-[1,1′-biphenyl]-3-yl)-7-(trifluoromethyl)benzo[d]oxazol-5-yl)methyl)-3-methylcyclohexan-1-amine] | < 200 | < 200 | < 200 | 
3 | C[C@@H]1CCC[C@@H](NCc2cc(C(F)(F)F)c3oc(-c4cccc(-c5ccc(F)cc5-c5nncn5C)c4)nc3c2)C1 (racemic) [FV-3, rac-(1R,3R)—N-((2-(4′-fluoro-2′-(4-methyl-4H-1,2,4-triazol-3-yl)-[1,1′-biphenyl]-3-yl)-7-(trifluoromethyl)benzo[d]oxazol-5-yl)methyl)-3-methylcyclohexan-1-amine] | < 200 | 200 to 1000 | < 200 | 
4 | Cn1cnnc1-c1cc(F)ccc1-c1cccc(-c2nc3cc(C(NCC4CCC4)C(F)(F)F)cc(F)c3o2)c1 (racemic) [IL-6, rac-N-(Cyclobutylmethyl)-2,2,2-trifluoro-1-(7-fluoro-2-(4′-fluoro-2′-(4-methyl-4H-1,2,4-triazol-3-yl)-[1,1′-biphenyl]-3-yl)benzo[d]oxazol-5-yl)ethan-1-amine] | 1000 to 10000 | 200 to 1000 | 1000 to 10000 | 
5 | Cn1cnnc1-c1cc(F)ccc1-c1cccc(-c2nc3cc(CN[C@]4(C)CCC[C@@H]4O)cc(C(F)(F)F)c3o2)c1 (racemic) [IM-8, rac-(1S,2R)-2-(((2-(4′-fluoro-2′-(4-methyl-4H-1,2,4-triazol-3-yl)-[1,1′-biphenyl]-3-yl)-7-(trifluoromethyl)benzo[d]oxazol-5-yl)methyl)amino)-2-methylcyclopentan-1-ol] | < 200 | < 200 | < 200 | 
6 | Cn1cnnc1-c1cc(F)ccc1-c1cccc(-c2nc3cc(C(NCC4CCC4)C(F)(F)F)cc(C4CC4)c3o2)c1 (racemic) [IO-4, rac-N-(Cyclobutylmethyl)-1-(7-cyclopropyl-2-(4′-fluoro-2′-(4-methyl-4H-1,2,4-triazol-3-yl)-[1,1′-biphenyl]-3-yl)benzo[d]oxazol-5-yl)-2,2,2-trifluoroethan-1-amine] | 1000 to 10000 | 1000 to 10000 | 1000 to 10000 | 
7 | Cn1cnnc1-c1cc(F)ccc1-c1cccc(-c2nc3cc(CN[C@H]4CC[C@@H]4O)cc(C(F)(F)F)c3o2)c1 (single isomer, unassigned) [ADG-1] | < 200 | < 200 | < 200 | 
8 | Cn1cnnc1-c1cc(F)ccc1-c1cccc(-c2nc3cc(CN[C@H]4CC[C@@H]4O)cc(C(F)(F)F)c3o2)c1 (single isomer, unassigned) [ADH-1] | < 200 |  | < 200 | < 200
9 | Cn1cnnc1-c1cc(F)ccc1-c1cccc(-c2nc3cc([C@H](CO)N4CCC4)cc(C(F)(F)F)c3o2)c1 (single isomer, unassigned) [DO-6] | < 200 | 1000 to 10000 | 200 to 1000 | 
10 | Cn1cnnc1-c1cc(F)ccc1-c1cccc(-c2nc3cc([C@@H](CO)N4CCC4)cc(C(F)(F)F)c3o2)c1 (single isomer, unassigned) [DO-7] | < 200 | 1000 to 10000 | 200 to 1000 | 
11 | Cn1cnnc1-c1cc(F)ccc1-c1cccc(-c2nc3cc(CNC[C@H](O)C4CC4)cc(C(F)(F)F)c3o2)c1 (single isomer, unassigned) [DT-2] | < 200 | < 200 | < 200 | 
12 | Cn1cnnc1-c1cc(F)ccc1-c1cccc(-c2nc3cc(CNC[C@@H](O)C4CC4)cc(C(F)(F)F)c3o2)c1 (single isomer, unassigned) [DT-3] | < 200 | < 200 | < 200 | 
13 | CO[C@H](CO)c1cc(C(F)(F)F)c2oc(-c3cccc(-c4ccc(F)cc4-c4nncn4C)c3)nc2c1 (single isomer, unassigned) [EG-2] | < 200 | 1000 to 10000 | 200 to 1000 | 
14 | CO[C@@H](CO)c1cc(C(F)(F)F)c2oc(-c3cccc(-c4ccc(F)cc4-c4nncn4C)c3)nc2c1 (single isomer, unassigned) [EG-3] | < 200 | 1000 to 10000 | 200 to 1000 | 
15 | CC(NCC1(O)CCC1)c1cc(F)c2oc(-c3cc(-c4ccc(F)cc4-c4nncn4C)cc(C4CC4)n3)nc2c1 (stereo in doubt) [AFQ-6, 1-({[(1S)-1-(2-{6-Cyclopropyl-4-[4-fluoro-2-(4-methyl-1,2,4-triazol-3-yl)phenyl]pyridin-2-yl}-7-fluoro-1,3-benzoxazol-5-yl)ethyl]amino}methyl)cyclobutan-1-ol] | < 200 | < 200 | < 200 | 
16 | CC(NCC1(O)CCC1)c1cc(F)c2oc(-c3cc(-c4ccc(F)cc4-c4nncn4C)cc(C4CC4)n3)nc2c1 (stereo in doubt) [AFR-1, 1-({[(1R)-1-(2-{6-Cyclopropyl-4-[4-fluoro-2-(4-methyl-1,2,4-triazol-3-yl)phenyl]pyridin-2-yl}-7-fluoro-1,3-benzoxazol-5-yl)ethyl]amino}methyl)cyclobutan-1-ol] | < 200 | < 200 | < 200 | 
17 | CO[C@H]1CCCC1NCc1cc(C(F)(F)F)c2oc(-c3cccc(-c4ccc(F)cc4-c4nncn4C)c3)nc2c1 (stereo in doubt) [CV-2, (1S,2S)—N-((2-(4′-Fluoro-2′-(4-methyl-4H-1,2,4-triazol-3-yl)-[1,1′-biphenyl]-3-yl)-7-(trifluoromethyl)benzo[d]oxazol-5-yl)methyl)-2-methoxycyclopentan-1-amine] | < 200 | 200 to 1000 | < 200 | 
18 | COC(=O)c1cc(C)c2oc(-c3cc(-c4ccc(F)cc4-c4nncn4C)cc(C4CC4)n3)nc2c1 [AES-3, Methyl 2-{6-cyclopropyl-4-[4-fluoro-2-(4-methyl-1,2,4-triazol-3-yl)phenyl]pyridin-2-yl}-7-methyl-1,3-benzoxazole-5-carboxylate] | 1000 to 10000 | 10000 to 50000 |  | 
19 | Cn1cnnc1-c1cc(F)ccc1-c1cccc(-c2nc3cc(C(=O)O)cc(C(F)(F)F)c3o2)c1 [DB-1, 2-(4′-Fluoro-2′-(4-methyl-4H-1,2,4-triazol-3-yl)-[1,1′-biphenyl]-3-yl)-7-(trifluoromethyl)benzo[d]oxazole-5-carboxylic Acid] | 10000 to 50000 | 1000 to 10000 |  | 
20 | Cn1cnnc1-c1ccccc1-c1cccc(-c2nc3cccc(C(F)(F)F)c3o2)c1 [Example K-2, 2-(2′-(4-Methyl-4H-1,2,4-triazol-3-yl)-[1,1′-biphenyl]-3-yl)-7-(trifluoromethyl)benzo[d]oxazole] | 10000 to 50000 |  | 10000 to 50000 | 
21 | C[C@@H]1CCCN(Cc2cc(C(F)(F)F)c3oc(-c4cccc(-c5ccccc5-c5nncn5C)c4)nc3c2)C1 [Example L-4, (R)-2-(2′-(4-Methyl-4H-1,2,4-triazol-3-yl)-[1,1′-biphenyl]-3-yl)-5-((3-methylpiperidin-1-yl)methyl)-7-(trifluoromethyl)benzo[d]oxazole] | 1000 to 10000 |  | 10000 to 50000 | 
22 | Cn1cnnc1-c1ccccc1-c1cccc(-c2nc3cc(CN(C(=O)OC(C)(C)C)[C@@H]4CCC[C@H]4O)cc(C(F)(F)F)c3o2)c1 [Example M-5, tert-Butyl ((1R,2R)-2-hydroxycyclopentyl)((2-(2′-(4-methyl-4H-1,2,4-triazol-3-yl)-[1,1′-biphenyl]-3-yl)-7-(trifluoromethyl)benzo[d]oxazol-5-yl)methyl)carbamate] | 200 to 1000 |  | 10000 to 50000 | 
23 | Cn1cnnc1-c1cc(F)ccc1-c1cccc(-c2nc3cccc(C(F)(F)F)c3o2)c1 [Example S-1, 2-(4′-Fluoro-2′-(4-methyl-4H-1,2,4-triazol-3-yl)-[1,1′-biphenyl]-3-yl)-7-(trifluoromethyl)benzo[d]oxazole] | 200 to 1000 |  | 1000 to 10000 | 
24 | COC(=O)c1cc(C(F)(F)F)c2oc(-c3cccc(-c4ccc(F)cc4-c4nncn4C)c3)nc2c1 [Example X-1, Methyl 2-(4′-fluoro-2′-(4-methyl-4H-1,2,4-triazol-3-yl)-[1,1′-biphenyl]-3-yl)-7-(trifluoromethyl)benzo[d]oxazole-5-carboxylate] | 200 to 1000 |  | 1000 to 10000 | 
25 | Cn1cnnc1-c1cc(F)ccc1-c1cccc(-c2nc3cc(NCCC4CCC4)cc(C(F)(F)F)c3o2)c1 [HU-1, N-(2-Cyclobutylethyl)-2-(4′-fluoro-2′-(4-methyl-4H-1,2,4-triazol-3-yl)-[1,1′-biphenyl]-3-yl)-7-(trifluoromethyl)benzo[d]oxazol-5-amine] | 1000 to 10000 | 10000 to 50000 |  | 
